pEC50: −log10 of the molar value.

As a reminder, the pEC50 is −log10 of the EC50, conventionally taken in molar units.

For this test, the target named is human activated kallikrein enzyme (plasma kallikrein) (Homo sapiens (Human), UniProt P03952). Description: Inhibition of human activated plasma kallikrein, fluorogenic peptide substrate assay, 500 pM enzyme format. In kind it is biochemical. The note with it: 500 pM activated kallikrein enzyme, 300 uM Pro-Phe-Arg-7-amido-4-methylcoumarin substrate, 30 min preincubation, 10 min at RT; read-out: Primary Dose Response Assay: Average EC50. How it is done: Example compounds were evaluated for inhibition of the human activated kallikrein enzyme in two formats of an assay employing a fluorogenic peptide substrate. In one assay format, the concentrations of reagents were as follows: 20 mM Tris pH 7.5, 1 mM EDTA, 150 mM sodium chloride, 0.1% PEG-400, 0.1% Triton X-100, 500 pM activated kallikrein enzyme, 300 uM Pro-Phe-Arg-7-amido-4-methylcoumarin substrate. Prior to reaction initiation with substrate, enzyme and inhibitors were preincubated for 30 min at RT. After initiation with substrate, reactions were incubated for 10 min at RT and fluorescence emission at 460 nm from 380 nm excitation measured with a microplate reader. In another assay format, the concentrations of reagents were as follows: 20 mM Tris pH 7.5, 1 mM EDTA, 150 mM sodium chloride, 0.1% PEG-400, 0.1% Triton X-100, 5 pM activated kallikrein enzyme, 300 uM Pro-Phe-Arg-7-amido-4-methylcoumarin substrate. Prior to reaction initiation with substrate, enzyme and inhibitors were preincubated for 30 min at RT. After initiation with substrate, reactions were incubated for 18 h at RT and fluorescence emission at 460 nm from 380 nm excitation measured with a microplate reader.
Sequence of human activated kallikrein enzyme (plasma kallikrein) (P03952 391-638): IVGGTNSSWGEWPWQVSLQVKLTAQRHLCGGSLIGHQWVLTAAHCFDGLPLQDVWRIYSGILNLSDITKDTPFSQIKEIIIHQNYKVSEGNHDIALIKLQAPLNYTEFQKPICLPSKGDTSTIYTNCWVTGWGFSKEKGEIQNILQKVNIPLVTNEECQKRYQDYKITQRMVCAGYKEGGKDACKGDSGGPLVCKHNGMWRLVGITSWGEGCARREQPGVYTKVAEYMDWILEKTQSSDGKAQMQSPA
Sequence of human activated kallikrein enzyme (plasma kallikrein) (P03952 20-390 partner): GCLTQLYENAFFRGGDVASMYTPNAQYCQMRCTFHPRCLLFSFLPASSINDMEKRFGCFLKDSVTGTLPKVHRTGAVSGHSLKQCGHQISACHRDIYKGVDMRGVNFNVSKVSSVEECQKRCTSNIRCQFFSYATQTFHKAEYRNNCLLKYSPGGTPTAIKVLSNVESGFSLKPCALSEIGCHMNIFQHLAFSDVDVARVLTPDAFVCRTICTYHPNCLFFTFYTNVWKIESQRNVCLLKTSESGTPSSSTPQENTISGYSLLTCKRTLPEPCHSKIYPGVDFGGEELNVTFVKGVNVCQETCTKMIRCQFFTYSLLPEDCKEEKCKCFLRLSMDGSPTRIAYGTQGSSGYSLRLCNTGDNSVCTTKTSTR
`O=C(NCc1ncn2ccc(Cl)c(F)c12)c1cn(Cc2cn3ccccc3n2)cn1` [Example I-297, N-((7-chloro-8-fluoroimidazo[1,5-a]pyridin-1-yl)methyl)-1-(imidazo[1,2-a]pyridin-2-ylmethyl)-1H-imidazole-4-carboxamide]: the negative logarithm of the EC50 (pEC50) was 7.00 to 8.00.
Next, `COc1c(C2CC2)ccc2nc(Cn3cc(C(=O)NCc4ncn5ccc(Cl)cc45)cn3)cn12` [Example I-142, N-((7-chloroimidazo[1,5-a]pyridin-1-yl)methyl)-1-((6-cyclopropyl-5-methoxyimidazo[1,2-a]pyridin-2-yl)methyl)-1H-pyrazole-4-carboxamide]: 8.00 to 9.00.
As for `O=C(NCc1ncn2ccc(Cl)cc12)c1cn(Cc2cn3cc(C4CC4)cc(C4(O)COC4)c3n2)nn1` [Example I-153, N-((7-chloroimidazo[1,5-a]pyridin-1-yl)methyl)-1-((6-cyclopropyl-8-(3-hydroxyoxetan-3-yl)imidazo[1,2-a]pyridin-2-yl)methyl)-1H-1,2,3-triazole-4-carboxamide], the pEC50 was > 9.00.
As for `O=C(NCc1ncn2ccc(Cl)c(F)c12)c1cn(Cc2cn3cc(C4CC4)cc(N4CCOC4=O)c3n2)nn1` [Example I-216, N-((7-chloro-8-fluoroimidazo[1,5-a]pyridin-1-yl)methyl)-1-((6-cyclopropyl-8-(2-oxooxazolidin-3-yl)imidazo[1,2-a]pyridin-2-yl)methyl)-1H-1,2,3-triazole-4-carboxamide], the figure is > 9.00.
Next, `CCOC(=O)C(C)(C)Oc1cc(C2CC2)cn2cc(Cn3cc(C(=O)NCc4ncn5ccc(Cl)c(F)c45)nn3)nc12` [Example I-223, ethyl 2-((2-((4-(((7-chloro-8-fluoroimidazo[1,5-a]pyridin-1-yl)methyl)carbamoyl)-1H-1,2,3-triazol-1-yl)methyl)-6-cyclopropylimidazo[1,2-a]pyridin-8-yl)oxy)-2-methylpropanoate]: > 9.00; `O=C(NCc1ncn2ccc(Cl)c(F)c12)c1cn(Cc2cn3cc(C4CC4)cc(C(O)C4COC4)c3n2)nn1` (stereo not drawn) [Example I-279, N-((7-chloro-8-fluoroimidazo[1,5-a]pyridin-1-yl)methyl)-1-((6-cyclopropyl-8-(hydroxy(oxetan-3-yl)methyl)imidazo[1,2-a]pyridin-2-yl)methyl)-1H-1,2,3-triazole-4-carboxamide]: > 9.00.
Next, `O=C(NCc1ncn2ccc(Cl)cc12)c1ncn(Cc2cn3cc(C4CC4)ccc3n2)n1` [Example I-152, N-((7-chloroimidazo[1,5-a]pyridin-1-yl)methyl)-1-((6-cyclopropylimidazo[1,2-a]pyridin-2-yl)methyl)-1H-1,2,4-triazole-3-carboxamide]: > 9.00; `CCOC(=O)CCc1nn(Cc2cn3cc(C4CC4)ccc3n2)cc1C(=O)NCc1ncn2ccc(Cl)cc12` [Example I-93, ethyl 3-(4-(((7-chloroimidazo[1,5-a]pyridin-1-yl)methyl)carbamoyl)-1-((6-cyclopropylimidazo[1,2-a]pyridin-2-yl)methyl)-1H-pyrazol-3-yl)propanoate]: > 9.00.
In the case of `COC(=O)c1ccc(-n2c(Cn3cc(C(=O)NCc4ncn5ccc(Cl)c(F)c45)nn3)cc3cc(C4CC4)ccc32)cc1` [Example I-254, methyl 4-(2-((4-(((7-chloro-8-fluoroimidazo[1,5-a]pyridin-1-yl)methyl)carbamoyl)-1H-1,2,3-triazol-1-yl)methyl)-5-cyclopropyl-1H-indol-1-yl)benzoate], the pEC50 is 8.00 to 9.00.
For `CC(NC(=O)c1cn(C(C)c2cn3cc(C4CC4)ccc3n2)nn1)c1ncn2ccc(Cl)c(F)c12` (stereo not drawn) [Example I-278, N-(1-(7-chloro-8-fluoroimidazo[1,5-a]pyridin-1-yl)ethyl)-1-(1-(6-cyclopropylimidazo[1,2-a]pyridin-2-yl)ethyl)-1H-1,2,3-triazole-4-carboxamide], the pEC50 is 5.70 to 7.00.
As for `O=C(NCc1ncn2ccc(Br)cc12)c1cnn(Cc2cn3cc(C(F)(F)F)ccc3n2)c1` [Example I-19, N-((7-bromoimidazo[1,5-a]pyridin-1-yl)methyl)-1-((6-(trifluoromethyl)imidazo[1,2-a]pyridin-2-yl)methyl)-1H-pyrazole-4-carboxamide], the figure is 8.00 to 9.00; as for `O=C(NCc1ncn2ccc(Cl)c(F)c12)c1cn(Cc2cn3cc(C4CC4)cc(CO)c3n2)nn1` [Example I-181, N-((7-chloro-8-fluoroimidazo[1,5-a]pyridin-1-yl)methyl)-1-((6-cyclopropyl-8-(hydroxymethyl)imidazo[1,2-a]pyridin-2-yl)methyl)-1H-1,2,3-triazole-4-carboxamide], > 9.00; as for `CC(C)(Oc1cc(C2CC2)cn2cc(Cn3cc(C(=O)NCc4ncn5ccc(Cl)c(F)c45)nn3)nc12)C(=O)O` [Example I-212, 2-((2-((4-(((7-chloro-8-fluoroimidazo[1,5-a]pyridin-1-yl)methyl)carbamoyl)-1H-1,2,3-triazol-1-yl)methyl)-6-cyclopropylimidazo[1,2-a]pyridin-8-yl)oxy)-2-methylpropanoic acid], > 9.00.
Next, `CC(C)(O)Cc1cc(C2CC2)cn2cc(Cn3cc(C(=O)NCc4ncn5ccc(Cl)cc45)cn3)nc12` [Example I-109, N-((7-chloroimidazo[1,5-a]pyridin-1-yl)methyl)-1-((6-cyclopropyl-8-(2-hydroxy-2-methylpropyl)imidazo[1,2-a]pyridin-2-yl)methyl)-1H-pyrazole-4-carboxamide]: > 9.00; `Cc1ncc(-c2cc(C3CC3)cn3cc(Cn4cc(C(=O)NCc5ncn6ccc(Cl)c(F)c56)nn4)nc23)s1` [Example I-257, N-((7-chloro-8-fluoroimidazo[1,5-a]pyridin-1-yl)methyl)-1-((6-cyclopropyl-8-(2-methylthiazol-5-yl)imidazo[1,2-a]pyridin-2-yl)methyl)-1H-1,2,3-triazole-4-carboxamide]: > 9.00.
As for `O=C(NCc1ncn2cc(F)c(Cl)cc12)c1cn(Cc2cn3cc(C4CC4)ccc3n2)nn1` [Example I-277, N-((7-chloro-6-fluoroimidazo[1,5-a]pyridin-1-yl)methyl)-1-((6-cyclopropylimidazo[1,2-a]pyridin-2-yl)methyl)-1H-1,2,3-triazole-4-carboxamide], the figure is 7.00 to 8.00; as for `N#Cc1cc(C2CC2)cn2cc(Cc3nnc(C(=O)NCc4ncn5ccc(Cl)cc45)o3)nc12` [Example I-128, N-((7-chloroimidazo[1,5-a]pyridin-1-yl)methyl)-5-((8-cyano-6-cyclopropylimidazo[1,2-a]pyridin-2-yl)methyl)-1,3,4-oxadiazole-2-carboxamide], > 9.00.
In the case of `Cc1c(C)n(C)c2ccc(Cn3cc(C(=O)NCc4ncn5ccc(Cl)c(F)c45)nn3)cc12` [Example I-269, N-((7-chloro-8-fluoroimidazo[1,5-a]pyridin-1-yl)methyl)-1-((1,2,3-trimethyl-1H-indol-5-yl)methyl)-1H-1,2,3-triazole-4-carboxamide], the pEC50 was 8.00 to 9.00.
As for `COC(=O)Cn1c(Cn2cc(C(=O)NCc3ncn4ccc(Cl)c(F)c34)nn2)cc2cc(C3CC3)ccc21` [Example I-246, methyl 2-(2-((4-(((7-chloro-8-fluoroimidazo[1,5-a]pyridin-1-yl)methyl)carbamoyl)-1H-1,2,3-triazol-1-yl)methyl)-5-cyclopropyl-1H-indol-1-yl)acetate], the figure is > 9.00; as for `CCOC(=O)C(C)Cc1cc(C2CC2)cn2cc(Cn3cc(C(=O)NCc4ncn5ccc(Cl)c(F)c45)nn3)nc12` (stereo not drawn) [Example I-245a, ethyl 3-(2-((4-(((7-chloro-8-fluoroimidazo[1,5-a]pyridin-1-yl)methyl)carbamoyl)-1H-1,2,3-triazol-1-yl)methyl)-6-cyclopropylimidazo[1,2-a]pyridin-8-yl)-2-methylpropanoate], > 9.00; as for `O=C(NCc1ncn2ccc(Cl)c(F)c12)c1cn(Cc2[nH]c3cc(C4CC4)ccc3c2C(=O)O)nn1` [Example I-274, 2-((4-(((7-chloro-8-fluoroimidazo[1,5-a]pyridin-1-yl)methyl)carbamoyl)-1H-1,2,3-triazol-1-yl)methyl)-6-cyclopropyl-1H-indole-3-carboxylic acid], 5.70 to 7.00.
Next, `O=C(NCc1ncn2ccc(Cl)c(F)c12)c1cc(C(=O)O)n(Cc2cn3cc(C4CC4)ccc3n2)c1` [Example I-270b, 4-(((7-chloro-8-fluoroimidazo[1,5-a]pyridin-1-yl)methyl)carbamoyl)-1-((6-cyclopropylimidazo[1,2-a]pyridin-2-yl)methyl)-1H-pyrrole-2-carboxylic acid]: > 9.00; `CC(Cc1cc(C2CC2)cn2cc(Cn3cc(C(=O)NCc4ncn5ccc(Cl)c(F)c45)nn3)nc12)C(=O)O` (stereo not drawn) [Example I-245b, 3-(2-((4-(((7-chloro-8-fluoroimidazo[1,5-a]pyridin-1-yl)methyl)carbamoyl)-1H-1,2,3-triazol-1-yl)methyl)-6-cyclopropylimidazo[1,2-a]pyridin-8-yl)-2-methylpropanoic acid]: > 9.00.
As for `CN(C)CCOCc1cc(C2CC2)cn2cc(Cn3cc(C(=O)NCc4ncn5ccc(Cl)c(F)c45)nn3)nc12` [Example I-299, N-((7-chloro-8-fluoroimidazo[1,5-a]pyridin-1-yl)methyl)-1-((6-cyclopropyl-8-((2-(dimethylamino)ethoxy)methyl)imidazo[1,2-a]pyridin-2-yl)methyl)-1H-1,2,3-triazole-4-carboxamide], the figure is > 9.00.

The values above are taken from US10730874B2 (Shire Human Genetic Therapies, Inc., priority 2018, dated 2020).
